The assay addresses Envelope glycoprotein gp160 (Human immunodeficiency virus 1, UniProt Q6QLK5). Description: inhibitors of HIV fusion peptide binding, primary screen, biochemical, uHTS, fluorescence dequenching (AID 1986).

We go through 1 compound from ChEMBL document CHEMBL1201862, “PubChem BioAssay data set” (2004).

Active and inactive are the calls of the source. Rule as the data show it: actives have a measured IC50 and inactives only a lower limit.

Envelope glycoprotein gp160, sequence (Q6QLK5 whole entry, the tested form may be a part): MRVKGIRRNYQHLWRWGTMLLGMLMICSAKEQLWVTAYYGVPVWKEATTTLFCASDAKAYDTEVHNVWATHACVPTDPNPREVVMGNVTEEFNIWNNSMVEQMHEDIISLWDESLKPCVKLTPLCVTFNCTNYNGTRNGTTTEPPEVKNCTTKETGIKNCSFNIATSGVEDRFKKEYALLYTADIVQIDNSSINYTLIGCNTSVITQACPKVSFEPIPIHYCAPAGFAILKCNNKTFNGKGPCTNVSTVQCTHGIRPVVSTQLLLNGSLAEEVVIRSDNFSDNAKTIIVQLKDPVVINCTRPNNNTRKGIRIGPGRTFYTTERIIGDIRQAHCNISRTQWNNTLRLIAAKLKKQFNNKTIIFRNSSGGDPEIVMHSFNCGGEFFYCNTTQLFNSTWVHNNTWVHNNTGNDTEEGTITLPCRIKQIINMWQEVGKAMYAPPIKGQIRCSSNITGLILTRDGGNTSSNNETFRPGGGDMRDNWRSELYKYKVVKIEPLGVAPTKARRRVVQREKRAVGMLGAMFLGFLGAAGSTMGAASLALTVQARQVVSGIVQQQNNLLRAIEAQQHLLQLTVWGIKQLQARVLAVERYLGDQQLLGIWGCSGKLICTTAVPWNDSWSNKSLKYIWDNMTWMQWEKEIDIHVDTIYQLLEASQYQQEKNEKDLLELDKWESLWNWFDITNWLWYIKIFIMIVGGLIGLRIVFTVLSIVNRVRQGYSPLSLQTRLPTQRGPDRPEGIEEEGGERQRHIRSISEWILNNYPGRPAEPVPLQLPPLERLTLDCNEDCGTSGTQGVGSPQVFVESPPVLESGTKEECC

In general, IC50 refers to the concentration needed to halve the response being measured. As for `CCOc1cc(/C=C2/C(=N)N3C(=NC2=O)SN=C3S(=O)(=O)CC)ccc1OC(=O)c1ccco1`, the IC50 is 19.3 µM (active).
